# Source: paper PMC4105438, “Novel Benzoxazine-Based Aglycones Block Glucose Uptake In Vivo by Inhibiting Glycosidases” (PLoS ONE, 2014)
# What was measured:
# [1] = target: T1, α-Glucosidase (Saccharomyces cerevisiae, UniProt P53341); assay: biochemical; details: 0–100 µM, pre-incubation 10 min 37°C, pH 6.9; NS = not significant
# T1 construct: purchased SRL, Mumbai (India)
# Protocol: (§1) Porcine pancreatic α-Amylase and Yeast α-Glucosidase were purchased from SRL, Mumbai (India). Glucose oxidase (GOD POD) kit was purchased from Piramal HealthCare Ltd, Mumbai (India). All other chemicals used were of analytical grade and purchased from Sigma Aldrich, St. Louis (USA) and SRL, Mumbai (India). All IR spectra were obtained in KBr disc on a Shimadzu FT-IR 157 Spectrometer. ^1H and ^13C NMR spectra were recorded on a Bruker WH-200 (400 MZ) spectrometer in CDCl3 or DMSO-d6 as solvent, using TMS as an internal standard and chemical shifts are expressed as ppm. Mass spectra were determined on a Shimadzu LC-MS. The elemental analyses were carried out using an Elemental Vario Cube CHNS rapid Analyzer. The progress of the reaction was monitored by TLC pre-coated silica gel G plates.
# The α-glucosidase inhibitory activities of synthesized compounds were evaluated using the method developed by Tsujii et al.. Briefly, α-glucosidase was dissolved in phosphate buffer (50 mM, pH 6.9) and pre-treated with various concentrations of 1,3-benzoxazine derivatives (0–100 µM) independently for 10 min at 37°C. The reaction was initiated by the addition of 50 µL of 5 mM p-nitrophenyl- α -D-glucopyranoside solution in phosphate buffer (50 mM, pH 6.9). The enzyme reaction was carried out at 37°C for 30 min. The reaction was terminated by the addition of Na2CO3 (1 M). The enzymatic activity of α-glucosidase was quantified by measuring the absorption at 405 nm using a Varioskan multimode plate reader (Thermo Scientifics, USA). The inhibitory effect of compounds was defined as inhibitory activity (%) = (Abs Control – Abs Compound treated)/Abs Control ×100. Concentration-response assays were used to determine the potency (IC50) of 1,3-benzoxazine derivatives based on the logistic analysis of the concentration-response curve using Microsoft Excel.
# [2] = target: T2, Porcine pancreatic α-amylase (Sus scrofa, UniProt P00690); assay: α-amylase inhibition assay (starch, DNS reagent); assay type: biochemical; details: 0–100 µM, pre-incubation 10 min 37°C, pH 6.9; NS = not significant
# T2 construct: purchased SRL, Mumbai (India)
# T2 sequence (P00690 16-511): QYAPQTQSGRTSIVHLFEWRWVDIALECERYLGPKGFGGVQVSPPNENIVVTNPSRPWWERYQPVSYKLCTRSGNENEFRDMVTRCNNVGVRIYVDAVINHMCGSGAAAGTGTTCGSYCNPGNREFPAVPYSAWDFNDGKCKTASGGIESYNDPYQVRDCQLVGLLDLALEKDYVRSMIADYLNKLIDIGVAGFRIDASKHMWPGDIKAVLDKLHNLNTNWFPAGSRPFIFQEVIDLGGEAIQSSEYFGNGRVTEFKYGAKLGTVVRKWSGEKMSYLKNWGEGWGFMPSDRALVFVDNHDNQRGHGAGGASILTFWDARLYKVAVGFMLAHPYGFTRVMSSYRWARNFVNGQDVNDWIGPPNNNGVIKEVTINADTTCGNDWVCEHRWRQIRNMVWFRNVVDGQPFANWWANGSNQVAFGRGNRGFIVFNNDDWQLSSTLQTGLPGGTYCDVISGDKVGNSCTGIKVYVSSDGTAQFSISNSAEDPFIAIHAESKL
# Protocol: as §1, with “All IR spectra were obtained in KBr disc on a Shimadzu FT-IR 157 Spectrometer. ^1H and ^13C NMR spectra were recorded on a Bruker WH-200 (400 MZ) spectrometer in CDCl3 or DMSO-d6 as solvent, using TMS as an internal standard and chemical shifts are expressed as ppm.” left out
# The α-amylase inhibition assay was performed according to a previous report. Porcine pancreatic α-amylase (3 units/mL) was dissolved in 0.1 M phosphate buffered saline, pH 6.9. […] The reaction was initiated by adding substrate solution (0.1% starch) to the incubation medium. After 10 min incubation, the reaction was stopped by adding 250 µL dinitrosalicylic (DNS) reagent (1% 3, 5-dinitrosalicylic acid, 0.2% phenol, 0.05% Na2SO3 and 1% NaOH in aqueous solution) to the reaction mixture. The reaction was terminated by keeping the reaction mixture in boiling water bath for 10 min. Thereafter, 250 µL of 40% potassium sodium tartarate solution was added to the mixtures to stabilize the colour. After cooling to room temperature in a cold water bath, the absorbance was recorded at 540 nm using a Varioskan multimode plate reader (Thermo Scientifics, USA). Acrabose was used as positive control. The percentage of inhibition was calculated using Abs Contol – Abs Sample ×100/Abs Control. Where Abs Control was the absorbance without sample, Abs sample was the absorbance of enzyme with compound.
# [3] = tested on: rat intestinal maltase; assay: Intestinal α-glucosidase inhibitory assay, maltose as substrate; assay type: biochemical
# Protocol: (§2) Intestinal α-glucosidase activity was determined by measuring the amount of glucose hydrolyzed from maltose or sucrose. Briefly, rat intestinal acetone powder was homogenized in 0.9% saline and the suspension was centrifuged at 10,000 g for 30 min at 4°C and the supernatant obtained was used as enzyme source. […] After the respective incubation period, reaction was terminated by keeping the samples in boiling water bath for 10 min. The concentration of glucose released from the reaction mixtures was determined by using Glucose oxidase (GOD POD) kit according to the manufacturer’s protocol. Results were expressed as percentage inhibition of intestinal maltase/sucrase activity.
# [4] = target: T3, rat intestinal sucrase (Rattus norvegicus, UniProt P23739); assay: Intestinal α-glucosidase inhibitory assay, sucrose as substrate; assay type: biochemical
# T3 construct: the supernatant obtained was used as enzyme source; tissue Sigma Aldrich, St. Louis (USA); host or cells: rat intestinal acetone powder (supernatant of the saline homogenate)
# Protocol: as §2
# [5] = tested on: overnight fasted Wistar rats; assay: Oral maltose tolerance test; assay type: in vivo, rat
# Description: (§3) Adult Wistar rats weighing 150–180 g were collected from the University Central Animal Facility and housed under a controlled environment. All animal experiments were approved by the Institutional Animal Ethical Committee (Order No : MGZ/2620/2011-12 Dated 31-01-2012; UOM/IAEC/18/2011), Department of Studies in Zoology, University of Mysore, Mysore and were in accordance with the guidelines of the Committee for the Purpose of Control and Supervision of Experiments on Animals (CPCSEA).
# (§4) The experimental animals were randomly divided into 11 groups each consisting of 5 rats. […] Blood was collected from the tail vein to the tubes containing anticoagulant (2.5% trisodium citrate and 1.37% citric acid in the ratio 1∶5; anti-coagulant: blood) at time point 0 (just before sucrose/maltose administration), and subsequently at 30, 60, 90, 120 and 180 min after substrate (sucrose/maltose) administration. Plasma was separated by centrifuging the samples at 2000 rpm for 10 min and stored at −20°C until analysis. Plasma glucose concentration was determined by using the Glucose oxidase (GOD POD) kit according to the manufacturer’s protocol.
# [6] = tested on: overnight fasted Wistar rats; assay: Oral sucrose tolerance test; assay type: in vivo, rat
# Description: as §3, §4
# [7] = tested on: porcine diaphragm; assay: Glucose uptake study in porcine diaphragm; details: 50 and 100 µM, with and without insulin (1 U), 5 mM glucose
# Protocol: Porcine diaphragm was purchased from a slaughter house, and cleaned using ice cold 0.9% saline several times to remove blood stains. This diaphragm was used for glucose uptake and inhibition by compound 7. Diaphragm (100 mg) was suspended in a 24 well culture plate containing 500 µL saline. In order to initiate the reaction, 5 mM glucose was added to each well. To enhance the glucose uptake by the diaphragm, 1 unit of insulin was used in each well, and the volume was made up to 1 ml with saline. For inhibition studies, compound 7 at a concentration of 50 & 100 µM was used. From each well 100 µL of the assay mixture was aspirated at different time intervals (0, 5, 10, 20, 30 and 60 min). From this, glucose concentration was measured using Glucose oxidase (GOD POD) kit according to the manufacturer’s protocol.
# T3 sequence (P23739 whole entry): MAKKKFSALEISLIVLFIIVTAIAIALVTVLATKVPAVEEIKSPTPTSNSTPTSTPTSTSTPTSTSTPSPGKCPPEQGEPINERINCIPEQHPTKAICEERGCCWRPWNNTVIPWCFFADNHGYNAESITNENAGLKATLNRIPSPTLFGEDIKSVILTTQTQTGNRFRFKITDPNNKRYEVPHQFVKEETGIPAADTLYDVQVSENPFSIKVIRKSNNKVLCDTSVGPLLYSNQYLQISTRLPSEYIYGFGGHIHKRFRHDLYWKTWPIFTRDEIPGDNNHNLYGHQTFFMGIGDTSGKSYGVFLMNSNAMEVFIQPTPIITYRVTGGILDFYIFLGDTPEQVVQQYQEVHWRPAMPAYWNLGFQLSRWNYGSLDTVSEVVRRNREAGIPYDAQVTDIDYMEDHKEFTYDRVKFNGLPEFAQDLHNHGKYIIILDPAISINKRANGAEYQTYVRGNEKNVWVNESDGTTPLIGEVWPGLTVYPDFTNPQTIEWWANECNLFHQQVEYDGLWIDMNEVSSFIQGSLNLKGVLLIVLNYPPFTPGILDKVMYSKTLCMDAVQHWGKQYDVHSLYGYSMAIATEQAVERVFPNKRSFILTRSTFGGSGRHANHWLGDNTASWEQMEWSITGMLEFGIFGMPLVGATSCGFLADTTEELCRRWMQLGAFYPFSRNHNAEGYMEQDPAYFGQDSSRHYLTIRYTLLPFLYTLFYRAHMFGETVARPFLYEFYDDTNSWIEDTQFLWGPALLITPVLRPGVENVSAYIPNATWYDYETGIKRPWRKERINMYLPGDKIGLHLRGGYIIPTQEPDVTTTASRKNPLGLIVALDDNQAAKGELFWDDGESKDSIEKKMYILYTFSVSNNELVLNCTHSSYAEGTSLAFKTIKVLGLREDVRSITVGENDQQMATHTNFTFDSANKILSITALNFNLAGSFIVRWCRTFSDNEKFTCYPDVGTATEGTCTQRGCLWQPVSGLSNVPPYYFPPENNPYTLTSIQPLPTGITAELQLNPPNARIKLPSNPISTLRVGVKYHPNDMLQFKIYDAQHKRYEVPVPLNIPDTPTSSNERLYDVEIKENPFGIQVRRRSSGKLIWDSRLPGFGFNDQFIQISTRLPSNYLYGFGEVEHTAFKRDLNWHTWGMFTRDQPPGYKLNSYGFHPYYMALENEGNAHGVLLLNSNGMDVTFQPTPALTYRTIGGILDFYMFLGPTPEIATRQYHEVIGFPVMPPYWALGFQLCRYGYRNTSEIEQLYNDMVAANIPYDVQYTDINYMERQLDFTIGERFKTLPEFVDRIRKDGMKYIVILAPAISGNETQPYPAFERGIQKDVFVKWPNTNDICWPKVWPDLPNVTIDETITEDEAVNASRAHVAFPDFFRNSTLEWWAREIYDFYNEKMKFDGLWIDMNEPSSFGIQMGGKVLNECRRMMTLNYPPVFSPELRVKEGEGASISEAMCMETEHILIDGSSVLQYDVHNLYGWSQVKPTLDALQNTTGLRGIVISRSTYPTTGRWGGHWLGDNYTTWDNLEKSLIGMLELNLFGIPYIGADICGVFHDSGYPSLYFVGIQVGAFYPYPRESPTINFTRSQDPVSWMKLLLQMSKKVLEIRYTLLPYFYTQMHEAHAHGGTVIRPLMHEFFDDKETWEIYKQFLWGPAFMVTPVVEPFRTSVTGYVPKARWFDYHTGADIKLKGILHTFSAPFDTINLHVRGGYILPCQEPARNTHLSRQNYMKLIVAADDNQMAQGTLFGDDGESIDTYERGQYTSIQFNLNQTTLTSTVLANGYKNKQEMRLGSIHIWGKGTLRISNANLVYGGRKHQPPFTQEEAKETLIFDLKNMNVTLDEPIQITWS
# T1 sequence (P53341 whole entry): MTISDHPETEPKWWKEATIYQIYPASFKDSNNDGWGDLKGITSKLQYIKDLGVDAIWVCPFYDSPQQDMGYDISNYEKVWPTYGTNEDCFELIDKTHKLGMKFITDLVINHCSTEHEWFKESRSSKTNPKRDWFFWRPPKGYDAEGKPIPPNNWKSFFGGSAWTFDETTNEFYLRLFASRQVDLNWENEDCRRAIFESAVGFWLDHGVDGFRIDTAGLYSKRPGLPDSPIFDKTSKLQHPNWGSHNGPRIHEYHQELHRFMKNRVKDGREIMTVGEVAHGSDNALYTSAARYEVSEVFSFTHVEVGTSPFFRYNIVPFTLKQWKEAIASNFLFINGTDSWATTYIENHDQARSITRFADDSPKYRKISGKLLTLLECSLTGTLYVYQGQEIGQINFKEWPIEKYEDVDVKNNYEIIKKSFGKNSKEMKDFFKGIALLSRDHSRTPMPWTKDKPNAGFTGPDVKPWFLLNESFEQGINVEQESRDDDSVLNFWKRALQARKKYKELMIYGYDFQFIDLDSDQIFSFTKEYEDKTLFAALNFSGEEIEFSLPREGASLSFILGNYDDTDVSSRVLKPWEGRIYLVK
structure (smiles),measurement,setting,value
"Oc1ccc(C2Nc3cc(Cl)ccc3CO2)cc1 (stereo not shown) [compound 7, 4-(7-chloro-2,4-dihydro-1H-benzo[d][1,3]oxazin-2-yl)phenol]",IC50,[1],11.5 ± 0.1 µM
same,IC50,[2],11 ± 0.3 µM
same,percentage inhibition of intestinal maltase in presence of acarbose,"[3]; 5 µM acarbose with compound 7 1–10 µM, compared with intestinal sucrase",synergistically inhibited intestinal maltase more efficiently compared to intestinal sucrase
same,percentage inhibition of intestinal maltase,[3]; compound 7 5–25 µM,dose-dependent manner
same,IC50,"[3]; rat intestinal acetone powder, maltose 37 mM, 30 min",10 µM
same,selectivity for maltase over sucrase,"[3]; ratio of IC50 values, rat intestinal enzymes",two-fold selective for maltase
same,percentage inhibition of intestinal sucrase,[4]; compound 7 5–25 µM,dose-dependent manner
same,IC50,"[4]; rat intestinal acetone powder, sucrose 56 mM, 60 min",20 µM
same,plasma glucose concentration,"[5]; 50 mg/kg oral, maltose 3 g/kg, 90 min, compared to acarbose",significantly reduced plasma glucose concentration at the 90 min time point compared to acarbose
same,plasma glucose concentration,"[5]; 100 mg/kg oral, maltose 3 g/kg, compared to acarbose standard",significantly more effective than the acarbose standard at all time points
same,plasma glucose concentration,"[5]; compound 7 50 mg/kg together with acarbose 3 mg/kg, maltose, up to 180 min, compared to saline group",plasma glucose concentration remained unchanged when compared to the saline treated group
same,plasma glucose concentration,"[6]; 50 mg/kg oral, sucrose 3 g/kg, 0–180 min, compared to acarbose treated group",significantly reduced the plasma glucose concentration throughout all time points
same,plasma glucose concentration,"[6]; 100 mg/kg oral, sucrose 3 g/kg, compared to acarbose standard",significantly more effective than the acarbose standard at all time points
same,plasma glucose concentration,"[6]; compound 7 50 mg/kg together with acarbose 3 mg/kg, sucrose, up to 180 min, compared to saline group",plasma glucose concentration remained unchanged when compared to the saline treated group
same,glucose uptake by diaphragm,[7],significantly blocked the glucose uptake both in control and insulin treated diaphragm in a dose-dependent manner
same,melting point,,139 to 141 °C
